Where two headings read alike, the source gives them in different places. One block for each molecule: values may come before it. *1 amine or outer side, *2 acyl side, *3 side chain or, on linkers, in order; H or OH if unused. Where a SMILES comes first, the peptide text is derived from it. Bridges are numbered along the chain shown (N, C = ends). Where no end group is shown, it is not given here. [ ]: non-standard residue; d: D form. Phe(Nα-CH2CH2CO) = O=C([C@H](Cc1ccccc1)N(CCC(=O)[*:3])[*:1])[*:2]; N(2-aminoethyl)Phe = O=C([C@H](Cc1ccccc1)N(CCN[*:3])[*:1])[*:2]; N(2-mercaptoethyl)Gly = O=C(CN(CCS[*:3])[*:1])[*:2]; N(CH2CH2CO)Gly = O=C(CN(CCC(=O)[*:3])[*:1])[*:2]; 2Nal = N[C@@H](Cc1ccc2ccccc2c1)C(=O)O; d2Nal = N[C@H](Cc1ccc2ccccc2c1)C(=O)O; Phe(C1) = not defined here; Phe(C2) = not defined here; Phe(C3) = not defined here
Columns and labels:
SSTR-2 = molecular target: T1, SSTR-2 (Homo sapiens, UniProt P30874); experiment: Inhibition of 125I-Tyr11-SRIF binding to membrane preparations expressing SSTR-2
T1 construct: expressed in transfected cells
Experimental: (§1) The receptor preparations used for these tests were either from the cloned human receptors selectively and stably expressed in Chinese Hamster Ovary (CHO) cells or from cell lines naturally expressing the SSTRs. […] The binding reactions were filtered, the filters were washed and the bound radioactivity was counted in gamma counter. Non specific binding was defined as the radioactivity remaining bound in the presence of 1 μM unlabeled SRIF-14.
(§2) In order to validate positive signals of the binding tests, and to eliminate non-specific signals, samples of irrelevant peptides, such as GnRH, that were synthesized and handled using the same procedures, were tested in the same assays as negative control samples. These samples had no binding activity in any of the assays. Results are shown below in Tables 5 and 6 and FIG. 1.

SSTR-5 = molecular target: T2, SSTR-5 (Homo sapiens, UniProt P35346); experiment: Inhibition of 125I-Tyr11-SRIF binding to membrane preparations expressing SSTR-5; settings: for IC50: Table 15, read-out: IC50 (nM) for SST-R 5
T2 construct: expressed in transfected cells
Experimental: as §1, §2

[1] = test system: somatostatin receptors (SSTR-1, 2, 3, 4 or 5); experiment: Somatostatin receptor subtype selectivity of binding; parameters: species or system human; settings: in words
Experimental: (§3) The somatostatin analogs were tested for their potency in inhibition of the binding of ^125I-Tyr^11-SRIF (based on the method described by Raynor et. al., Molecular Pharmacology, 1993, 43, 838-844) to membrane preparations expressing the transmembranal somatostatin receptors (SSTR-1, 2, 3, 4 or 5). The receptor preparations used for these tests were either from the cloned human receptors selectively and stably expressed in Chinese Hamster Ovary (CHO) cells or from cell lines naturally expressing the SSTRs. Typically, cell membranes were homogenated in Tris buffer in the presence of protease inhibitors and incubated for 30-40 minutes with ^125I-Tyr^11-SRIF with different concentrations of the tested sample. The binding reactions were filtered, the filters were washed and the bound radioactivity was counted in gamma counter. Non specific binding was defined as the radioactivity remaining bound in the presence of 1 μM unlabeled SRIF-14.
as §2

SSTR-3 = molecular target: T3, SSTR-3 (Homo sapiens, UniProt P32745); experiment: Inhibition of 125I-Tyr11-SRIF binding to membrane preparations expressing SSTR-3; settings: for IC50: Table 15, read-out: IC50 (nM) for SST-R 3
T3 construct: expressed in transfected cells
Experimental: as §3, with “Typically, cell membranes were homogenated in Tris buffer in the presence of protease inhibitors and incubated for 30-40 minutes with ^125I-Tyr^11-SRIF with different concentrations of the tested sample.” left out
as §2

[2] = In vitro biostability in renal homogenate (HPLC); settings: kidney or brush border membranes
Experimental: The assay was based on HPLC determination of peptide degradation as a function of time in renal homogenate at 37° C.

[3] = cited from earlier work
[4] = molecular target: T4, cloned human somatostatin receptor 2 (human, UniProt P30874 1-369); experiment: inhibition of SRIF binding, cloned human SSTR-2; head says nM, values evidently molar
T4 construct: whole, on cells; Tested as cell membrane preparations; also called SSTR-2; SSTR2
Excerpt: as §1, with “counter.” for “counter. Non specific binding was defined as the radioactivity remaining bound in the presence of 1 μM unlabeled SRIF-14.”

[5] = molecular target: T5, cloned human somatostatin receptor 3 (human, UniProt P32745 1-418); experiment: inhibition of SRIF binding, cloned human SSTR-3; head says nM, values evidently molar
T5 construct: whole, on cells; Tested as cell membrane preparations; also called SSTR-3; SSTR3
Excerpt: as §1, with “counter.” for “counter. Non specific binding was defined as the radioactivity remaining bound in the presence of 1 μM unlabeled SRIF-14.”

[6] = molecular target: T6, cloned human somatostatin receptor 5 (human, UniProt P35346 1-364); experiment: inhibition of SRIF binding, cloned human SSTR-5; head says nM, values evidently molar
T6 construct: whole, on cells; Tested as cell membrane preparations; also called SSTR-5; SSTR5
Excerpt: as §1, with “counter.” for “counter. Non specific binding was defined as the radioactivity remaining bound in the presence of 1 μM unlabeled SRIF-14.”

[7] = molecular target: T5, cloned human somatostatin receptor 3; experiment: 125I-Tyr11-SRIF displacement, membranes, cloned human SST-R3
Excerpt: as §1, with “counter.” for “counter. Non specific binding was defined as the radioactivity remaining bound in the presence of 1 μM unlabeled SRIF-14.”

[8] = molecular target: T7, cloned human somatostatin receptor 4 (human, UniProt P31391 1-388); experiment: 125I-Tyr11-SRIF displacement, cloned human SSTR-R4
T7 construct: whole, on cells; Tested as cell membrane preparations; also called SSTR-4; SSTR-R4

[9] = Table 15, read-out: IC50 (nM) for SST-R 2
[10] = IV, from Sandostatin overview, Sandoz 1992
[11] = SC, from Sandostatin overview, Sandoz 1992

T7 sequence (P31391 whole entry): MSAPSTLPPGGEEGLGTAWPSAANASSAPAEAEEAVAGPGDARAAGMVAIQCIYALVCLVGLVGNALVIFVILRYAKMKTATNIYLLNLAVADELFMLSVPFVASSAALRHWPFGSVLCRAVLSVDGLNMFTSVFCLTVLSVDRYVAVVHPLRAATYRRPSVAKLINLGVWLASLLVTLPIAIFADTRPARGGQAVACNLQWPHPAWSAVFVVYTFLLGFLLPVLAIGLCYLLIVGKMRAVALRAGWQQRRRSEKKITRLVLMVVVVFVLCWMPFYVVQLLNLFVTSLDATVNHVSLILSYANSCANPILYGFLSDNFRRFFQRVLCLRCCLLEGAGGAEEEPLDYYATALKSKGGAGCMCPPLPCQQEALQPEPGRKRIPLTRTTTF
T2 sequence (P35346 whole entry): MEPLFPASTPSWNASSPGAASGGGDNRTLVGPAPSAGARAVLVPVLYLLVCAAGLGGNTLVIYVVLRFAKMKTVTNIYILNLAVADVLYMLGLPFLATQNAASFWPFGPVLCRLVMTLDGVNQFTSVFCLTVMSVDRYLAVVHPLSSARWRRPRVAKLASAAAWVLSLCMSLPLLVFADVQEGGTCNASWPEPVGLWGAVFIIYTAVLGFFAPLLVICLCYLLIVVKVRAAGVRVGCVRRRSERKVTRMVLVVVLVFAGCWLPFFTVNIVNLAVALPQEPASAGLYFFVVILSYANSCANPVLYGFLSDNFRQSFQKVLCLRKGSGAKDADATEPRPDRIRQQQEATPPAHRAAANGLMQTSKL
T6 sequence (P35346 whole entry): as above
T1 sequence (P30874 whole entry): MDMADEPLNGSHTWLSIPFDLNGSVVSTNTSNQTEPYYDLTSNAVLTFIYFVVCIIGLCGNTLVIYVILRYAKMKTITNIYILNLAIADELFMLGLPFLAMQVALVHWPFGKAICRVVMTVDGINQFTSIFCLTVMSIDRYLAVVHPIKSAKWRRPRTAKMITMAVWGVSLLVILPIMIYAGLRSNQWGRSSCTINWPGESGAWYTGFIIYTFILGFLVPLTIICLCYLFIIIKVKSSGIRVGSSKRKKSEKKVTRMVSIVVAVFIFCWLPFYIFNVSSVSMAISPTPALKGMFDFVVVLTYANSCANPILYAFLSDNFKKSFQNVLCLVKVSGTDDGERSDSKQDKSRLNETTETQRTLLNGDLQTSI
T4 sequence (P30874 whole entry): as above
T3 sequence (P32745 whole entry): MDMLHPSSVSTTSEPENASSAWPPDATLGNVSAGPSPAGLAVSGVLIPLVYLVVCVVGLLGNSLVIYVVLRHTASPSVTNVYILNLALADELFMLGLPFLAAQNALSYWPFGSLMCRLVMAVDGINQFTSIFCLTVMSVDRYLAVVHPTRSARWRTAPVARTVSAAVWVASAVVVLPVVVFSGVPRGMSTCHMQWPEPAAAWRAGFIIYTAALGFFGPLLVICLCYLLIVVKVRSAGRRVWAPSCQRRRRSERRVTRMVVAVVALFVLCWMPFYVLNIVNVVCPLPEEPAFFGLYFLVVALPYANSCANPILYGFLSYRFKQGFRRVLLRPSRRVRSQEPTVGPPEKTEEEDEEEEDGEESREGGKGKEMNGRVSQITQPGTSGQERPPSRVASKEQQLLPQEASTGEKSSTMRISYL
T5 sequence (P32745 whole entry): as above

Molecule: C[C@@H](O)[C@@H]1NC(=O)[C@H](CCCCN)NC(=O)[C@@H](Cc2c[nH]c3ccccc23)NC(=O)[C@H](Cc2c[nH]c3ccccc23)NC(=O)[C@H](Cc2ccccc2)NC(=O)[C@@H](N)CSSCCN(CC(N)=O)C(=O)[C@H](Cc2ccccc2)NC1=O [PTR 3197, Cys*-Phe-Trp-(D)Trp-Lys-Thr-Phe-Gly(S2)*-NH2] (H-CFW[dW]KTF[N(2-mercaptoethyl)Gly]-NH2; disulfide 1-8; N-terminus assumed)
IC50 (SSTR-2; [9]): 4 nM
IC50 (SSTR-5): 1 nM

Molecule: Phe(N2)-Tyr-(D)2Nal-Lys-Val-Gly(C2)-Thr-X ([N(2-aminoethyl)Phe]Y[d2Nal]KV[N(CH2CH2CO)Gly]T; lactam 1-6; not fully specified; printed as Phe(N2)-Tyr-(D)2Nal-Lys-Val-Gly(C2)-Thr-X) [PTR 3209]
somatostatin receptor subtype selectivity [1]: selective for the type 1 receptor

Molecule: Phe(N2)-Tyr-(D)Trp-Lys-Val-Gly(C2)-2Nal-X ([N(2-aminoethyl)Phe]Y[dW]KV[N(CH2CH2CO)Gly][2Nal]; lactam 1-6; not fully specified) [PTR 3183]
somatostatin receptor subtype selectivity [1]: selective for the type 5 somatostatin receptor

Molecule: C[C@@H](O)[C@@H]1NC(=O)[C@H](CCCCN)NC(=O)[C@@H](Cc2c[nH]c3ccccc23)NC(=O)[C@H](Cc2ccccc2)NC(=O)[C@@H](NC(=O)[C@H](N)Cc2ccccc2)CSSC[C@@H](C(=O)N[C@H](CO)[C@@H](C)O)NC1=O [Octreotide]
remaining at 1 h [2]: 100%
remaining at 3 h [2]: 100%
remaining at 24 h [2]: 100%
Clearance [3, 10]: 17.6 mL/min/kg
T½β (min) circulating half life [3, 10]: 49 min
Vss (ml/kg) Volume of distribution [3, 10]: 602 mL/kg
circulation half-life ([3]; Octreotide): 40 min
Clearance [3, 11]: 17.1 mL/min/kg
F (%) Bioavailability [3, 11]: 103%
T½β (min) circulating half life [3, 11]: 40 min

Molecule: C[C@@H](O)[C@@H]1NC(=O)[C@H](CCCCN)NC(=O)[C@@H](Cc2c[nH]c3ccccc23)NC(=O)[C@H](Cc2c[nH]c3ccccc23)NC(=O)[C@H](Cc2ccccc2)NC(=O)CN(C(=O)[C@H](N)Cc2ccccc2)CCSSCCN(CC(N)=O)C(=O)[C@H](Cc2ccccc2)NC1=O [PTR 3219, (D)Phe-Gly(S2)*-Phe-Trp-(D)Trp-Lys-Thr-Phe-Gly(S2)*-NH2]
IC50 (SSTR-2): 4 nM

Molecule: Phe(N2)-Tyr-(D)Trp-Lys-Val-Val-Gly(C2)-X ([N(2-aminoethyl)Phe]Y[dW]KVV[N(CH2CH2CO)Gly]; lactam 1-7; not fully specified) [PTR 3185]
somatostatin receptor subtype selectivity [1]: selective for the type 5 somatostatin receptor

Molecule: NCCCC[C@H]1NC(=O)[C@@H](Cc2c[nH]c3ccccc23)NC(=O)[C@H](Cc2ccccc2)NC(=O)[C@H](Cc2ccccc2)NC(=O)[C@H](Cc2ccccc2)NC(=O)CCN([C@@H](Cc2ccccc2)C(N)=O)C1=O [PTR 3171, Phe*-Phe-Phe-(D)Trp-(D)Lys-Phe(C2)-X] (FFF[dW][dK][Phe(Nα-CH2CH2CO)]-NH2; lactam N-6)
inhibition at 1 µM (SSTR-3; SST-R3, 10^−6M, read-out: Percent inhibition of SRIF-14 binding): 87%
inhibition at 0.1 µM (SSTR-3; SST-R3, 10^−7M, read-out: Percent inhibition of SRIF-14 binding): 40%
inhibition at 0.01 µM (SSTR-3; SST-R3, 10^−8M, read-out: Percent inhibition of SRIF-14 binding): 12%
inhibition at 1 µM (SSTR-5; SST-R5, 10^−6M, read-out: Percent inhibition of SRIF-14 binding): 60%
inhibition at 0.1 µM (SSTR-5; SST-R5, 10^−7M, read-out: Percent inhibition of SRIF-14 binding): 10%
inhibition at 0.01 µM (SSTR-5; SST-R5, 10^−8M, read-out: Percent inhibition of SRIF-14 binding): 18%
remaining at 1 h [2]: 100%
remaining at 3 h [2]: 100%
remaining at 24 h [2]: 100%

B1: PTR 3113 (peptide)
peptide: [Phe(C1)]FF[dW]K[N(2-aminoethyl)Phe]
modifications: lactam 1-6; reading uncertain
notes: Backbone cyclized hexapeptide somatostatin analog
percent inhibition of SRIF-14 binding at 10^-6M [7]: 94%
percent inhibition of SRIF-14 binding at 10^-7M [7]: 65%
percent inhibition of SRIF-14 binding at 10^-8M [7]: 16%

Molecule: FFF[dW][dK][Phe(C2)] (lactam N-6; reading uncertain, Backbone-to-end cyclized hexapeptide) [PTR 3171]
percent inhibition of SRIF-14 binding at 10^-6M [7]: 87%
percent inhibition of SRIF-14 binding at 10^-7M [7]: 40%
percent inhibition of SRIF-14 binding at 10^-8M [7]: 12%

B2: PTR 3173 (peptide)
peptide: XFWWKTFG
modifications: GABA at 1 (written X); (D)Trp at 4; Gly(C3) building unit at 8 bridged by an amide to the N terminus (GABA); C-terminal amide
notes: Backbone-to-end cyclized octapeptide
percent inhibition of SRIF-14 binding at 10^-6 M [8]: 5%
percent inhibition of SRIF-14 binding at 10^-7M [8]: 5%
percent inhibition of SRIF-14 binding at 10^-8M [8]: 0%
percent inhibition of SRIF-14 binding at 10^-9 M [8]: 0%
percent inhibition of SRIF-14 binding at 10^-10 M [8]: 0%
percent inhibition of SRIF-14 binding at 10^-11 M [8]: 0%
IC50 [4]: 1 nM
IC50 [5]: 100 nM
IC50 [6]: 1 nM

Results, then the molecule that gave them:

IC50 (SSTR-2; [9]): 37 nM
IC50 (SSTR-3): 100 nM
Molecule: C[C@@H](O)[C@@H]1NC(=O)[C@H](CCCCN)NC(=O)[C@@H](Cc2c[nH]c3ccccc23)NC(=O)[C@H](Cc2c[nH]c3ccccc23)NC(=O)[C@H](Cc2ccccc2)NC(=O)CCSSCCN(CC(N)=O)C(=O)[C@H](Cc2ccccc2)NC1=O [PTR 3217, 3-Thiopropanoic-acid*-Phe-Trp-(D)Trp-Lys-Thr-Phe-Gly(S2)*-NH2]

IC50 (SSTR-2; [9]): 37 nM
IC50 (SSTR-3): 12 to 37 nM
Molecule: C[C@@H](O)[C@@H]1NC(=O)[C@H](CCCCN)NC(=O)[C@@H](Cc2c[nH]c3ccccc23)NC(=O)[C@H](Cc2c[nH]c3ccccc23)NC(=O)[C@H](Cc2ccccc2)NC(=O)CSSCCN(CC(N)=O)C(=O)[C@H](Cc2ccccc2)NC1=O [PTR 3211, Mercapto-acetic-acid(*)-Phe-Trp-(D)Trp-Lys-Thr-Phe-Gly(S2)*-NH2]

IC50 (SSTR-2; [9]): 4 nM
IC50 (SSTR-5): 12 nM
Molecule: C[C@@H](O)[C@@H]1NC(=O)[C@H](CCCCN)NC(=O)[C@@H](Cc2c[nH]c3ccccc23)NC(=O)[C@H](Cc2c[nH]c3ccccc23)NC(=O)[C@H](Cc2ccccc2)NC(=O)CNCCSSCCN(CC(N)=O)C(=O)[C@H](Cc2ccccc2)NC1=O [PTR 3213, Gly(S2)*-Phe-Trp-(D)Trp-Lys-Thr-Phe-Gly(S2)*-NH2]

IC50 (SSTR-2; [9]): 1 to 12 nM
Molecule: C[C@@H](O)[C@@H]1NC(=O)[C@H](CCCCN)NC(=O)[C@@H](Cc2c[nH]c3ccccc23)NC(=O)[C@H](Cc2c[nH]c3ccccc23)NC(=O)[C@H](Cc2ccccc2)NC(=O)[C@@H](NC(=O)[C@H](N)Cc2ccccc2)CSSCCN(CC(N)=O)C(=O)[C@H](Cc2ccccc2)NC1=O [PTR 3207, (D)Phe-Cys*-Phe-Trp-(D)Trp-Lys-Thr-Phe-Gly(S2)*-NH2]

IC50 [4]: 1 nM
Molecule: [Phe(C3)]CF[dW]KTC[Phe(N3)]-NH2 (lactam 1-8; disulfide 2-7; reading uncertain, Bicyclic analog) [PTR 3205]

IC50 [4]: 100 nM
IC50 [5]: 10 nM
IC50 [6]: 10 nM
Molecule: [N(2-aminoethyl)Phe]F[dW]KT[2Nal][N(CH2CH2CO)Gly] (lactam 1-7; not fully specified, Backbone cyclized heptapeptide) [PTR 3203]

IC50 [4]: 100 nM
IC50 [5]: 10 nM
IC50 [6]: 1 nM
Molecule: [N(2-aminoethyl)Phe]Y[dW]KS[2Nal][N(CH2CH2CO)Gly] (lactam 1-7; not fully specified, Backbone cyclized heptapeptide) [PTR 3201]

— patent US6930088B2, “Conformationally constrained backbone cyclized somatostatin analogs” (Peptor Ltd., priority 1998, dated 2005)
